Patent publication US6372488B1, “AMPA-binding human GluR4 receptors” (NPS Allelix Corp., priority 1992, dated 2002)

Target: T1, human GluR4B receptor (Homo sapiens, UniProt P48058)
T1 construct: transported to the cell surface in mature form, lacking the signal peptide and consisting of 881 amino acids; expressed in transfected cells; host or cells: COS-1 cells (ATCC CRL 1650), transient, plasmid pcDNAI/humGluR4B
Assay: ligand binding assay (NMDA), membranes of human GluR4B receptor-producing COS cells
Details: COS cell membrane preparation

T1 sequence (P48058 21-902): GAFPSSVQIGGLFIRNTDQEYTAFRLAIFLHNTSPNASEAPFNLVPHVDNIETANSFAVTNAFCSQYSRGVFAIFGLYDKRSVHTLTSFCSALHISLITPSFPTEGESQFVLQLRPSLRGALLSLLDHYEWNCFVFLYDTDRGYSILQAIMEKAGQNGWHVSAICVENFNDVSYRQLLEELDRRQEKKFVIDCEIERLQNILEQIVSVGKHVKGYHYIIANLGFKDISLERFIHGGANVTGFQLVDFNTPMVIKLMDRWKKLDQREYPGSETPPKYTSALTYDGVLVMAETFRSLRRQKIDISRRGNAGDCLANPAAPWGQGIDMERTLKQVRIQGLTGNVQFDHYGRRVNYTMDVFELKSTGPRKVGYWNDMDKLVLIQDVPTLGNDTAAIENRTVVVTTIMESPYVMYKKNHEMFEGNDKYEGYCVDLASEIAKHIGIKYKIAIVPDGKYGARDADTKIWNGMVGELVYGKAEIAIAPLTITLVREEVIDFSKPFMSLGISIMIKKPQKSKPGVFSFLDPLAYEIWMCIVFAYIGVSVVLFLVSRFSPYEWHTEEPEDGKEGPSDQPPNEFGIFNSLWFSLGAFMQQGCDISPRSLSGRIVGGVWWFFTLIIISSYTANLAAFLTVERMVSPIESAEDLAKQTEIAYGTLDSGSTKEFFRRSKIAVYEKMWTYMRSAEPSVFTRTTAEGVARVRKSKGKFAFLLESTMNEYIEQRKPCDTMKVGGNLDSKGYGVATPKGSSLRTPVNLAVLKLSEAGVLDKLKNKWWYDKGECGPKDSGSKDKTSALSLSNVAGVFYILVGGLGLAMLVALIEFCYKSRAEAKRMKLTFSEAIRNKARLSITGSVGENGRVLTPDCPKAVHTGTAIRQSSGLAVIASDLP

In the case of `CN[C@H](CC(=O)O)C(=O)O` [NMDA, N-methyl-D-aspartate], the “binding of NMDA to human GluR4B receptor” value is reported as “little or no demonstrable binding”.
